Here are results for 4 compounds from patent US5334587A, “Compounds, named the "Leustroducsins", their preparation and their therapeutic uses” (Sankyo Company, Limited, priority 1991, dated 1994).

In brackets after ≈: the same amount, converted by molar mass.

Series [1] concerns GM-CSF production by KM-102 cells. In words: Stimulation of GM-CSF production (KM-102 cells; GM-CSF assayed by growth of TF-1 cells). The series is classed as cell-based, human. The following applies: for EC50: Homo sapiens, 24 hours, TF-1 cell growth, read-out: ED50 for stimulation of GM-CSF production; for EC50 / induction of GM-CSF production (in words): KM-102 cells. An excerpt: (§1) The ability of the leustroducsins to stimulate the production of hematopoietic factors in accordance with the present invention can, in principle, be assayed by the method by Kohama et al. [Experimental Hematology 16, 603-608 (1988)]. In this method, a production system for various hematopoietic factors and an assay system for various hematopoietic factors are combined. KM-102 cells, for example, which originated from human bone marrow stromal cells, my be employed to produce various hematopoietic factors. However, any cells capable of the production of various hematopoietic factors may be used instead, for example primary cultured bone marrow stromal cells, vascular endothelial cells, lymphocytes, or macrophages which exist in the bone marrow. A test sample of the compound whose activity is to be assessed is diluted to a suitable concentration and added the culture system containing the cells which produce various hematopoietic factors ("HF-producing cells"). After a suitable period, usually 24 hours, a part of the supernatant of the culture medium is taken, and added to a culture system of cells which are dependent on various hematopoietic factors, for example, TF-1 cells and NFS-60 cells, ("HF-dependent cells") at a suitable concentration. After a certain time, the amount of hematopoietic factors can be measured by measuring the growth of the HF-dependent cells, and thus the ability of the compound to stimulate the production of various hematopoietic factors can be assayed. The growth of the HF-dependent cells may be determined by any conventional method, such as the incorporation of tritium-thymidine by the cells or using an MTT [3-(4,5-dimethylthiazol-2-yl)-2,5-diphenyltetrazolium bromide] assay method (Chemicon International Inc., USA). The assay of various hematopoietic factors may be carried out by any conventional method, such as the colony-forming method or the ELISA method.
Determination of the stimulation of GM-CSF production by the compounds of the present invention was carried out, in principle, using a combination of the method of Kohama et al. [Experimental Hematology 16, 603-608 (1988)] and that of Kitamura et al. [Journal of Cellular Physiology 140, 323-334 (1989)]. In more detail, KM-102 cells originating from human bone marrow stromal cells, which served as to produce GM-CSF, were mixed with a test sample solution diluted to a suitable concentration (the "GM-CSF producing system"). After incubation for 24 hours, a part of the culture supernatant was taken and was added to a culture system of GM-CSF-dependent human TF-1 cells. After between 48 and 72 hours, the amount of GM-CSF was measured by the growth of TF-1 cells (the "GM-CSF assay system") to obtain a measure of the stimulation of GM-CSF production. The growth of TF-1 cells was determined by tritium thymidine pulse-labelling for 4 hours. Similar results were obtained also by means of an MTT kit (Chemicon International Inc. USA) to assay the growth of TF-1 cells and by means of an ELISA kit (Genzyme Inc. USA) to assay the GM-CSF. Whether the GM-CSF production inducing system functioned normally or not was assayed by means of recombinant interleukin 1β (IL-1β: Genzyme Inc. USA).

Series [2] is described as follows: Acute toxicity. The series is classed as in vivo, ddY mice (male). As for the experimental part: According to the conventional procedure, the acute toxicity was tested in five ddY mice (male).
The nature of series [3]: Solubility / nature. The series is classed as physicochemical.
The test system of series [4] is G-CSF production by KM-102 cells. In words: Stimulation of G-CSF production (KM-102 cells; G-CSF assayed by growth of NFS-60 cells). The series is classed as cell-based, human. The following applies: for EC50: Homo sapiens, 24 hours, NFS-60 cell growth, read-out: ED50 for stimulation of G-CSF production; for EC50 / induction of G-CSF production (in words): KM-102 cells.
From the text: as §1
Stimulation of G-CSF production was assayed by a system in which the GM-CSF assay system employed inTest Example 1 was replaced by a G-CSF assay system [as described by Shirafuji et al.: Experimental Hematology 17, 116-119 (1989)]. In more detail, KM-102 cells originating from human bone marrow stromal cells, which served to produce G-CSF, were added to a leustroducsin solution diluted to a suitable concentration (the "G-CSF producing system"). After incubation for 24 hours, a part of the culture supernatant was taken, and added to a culture system of G-CSF-dependent NFS-60 cells. After between 24 and 48 hours, the amount of G-CSF was assayed from the growth of NFS-60 cells (the "G-CSF assay system") to obtain a measure of the stimulation of G-CSF production. The growth of NFS-60 cells was determined by tritium-thymidine pulse-labelling for 4 hours. Similar results were also obtained by means of an MTT kit to assay the growth of NFS-60 cells and by means of an ELISA kit to assay the G-CSF [Motojima et al.: Journal of Immunological Methods 118, 187-192 (1989)]. Whether the G-CSF production inducing system functioned normally or not was assayed by means of recombinant interleukin 1 β (IL-1β: Genzyme Inc. USA).

Where [5] appears, read: similarly tested, dose not separately printed.

Turning to `CCC1C=CC(=O)OC1/C=C/C(O)(CCN)C(CC(O)/C=C\C=C/C1CCCC(OC(=O)CCCC(C)C)C1)OP(=O)(O)O` (centres unmarked) [Leustroducsin A], in series [1], the EC50 came out at 0.18 µg/mL and the “induction of GM-CSF production (in words)” value is “induced in a dose-dependent manner”. Besides, the acute toxicity entry in series [2] (intraperitoneal, 0.2 mg/kg, 5 days, five mice) was “no toxicity was observed”. In series [3], the Nature result was “Acidic and fat soluble”; the Solubility in hexane entry is given as “insoluble in hexane”; the “Solubility in organic solvents” value was “Soluble in alcohols, such as methanol, ethanol or butanol; and soluble in acetone, chloroform, ethyl acetate and dimethyl sulfoxide”; the Solubility in water entry is “limited solubility in water”. In series [4], the EC50 is 0.2 µg/mL (≈ 0.312 µM) and the “induction of G-CSF production (in words)” value is on record as “induced in a dose-dependent fashion”.

For `CCC(C)CCCCC(=O)OC1CCCC(/C=C\C=C/C(O)CC(OP(=O)(O)O)C(O)(/C=C/C2OC(=O)C=CC2CC)CCN)C1` (centres unmarked) [Leustroducsin B], in series [1], the EC50 was determined as 0.05 µg/mL and the “induction of GM-CSF production (in words)” value is listed as “induced in a dose-dependent manner”. Further, the acute toxicity result in series [2] (setting [5]) is “no toxicity was observed”. Further, in series [3], the Nature result was “Acidic and fat soluble”; the Solubility in hexane result is “insoluble in hexane”; the “Solubility in organic solvents” value is “Soluble in alcohols, such as methanol, ethanol or butanol; and soluble in acetone, chloroform, ethyl acetate and dimethyl sulfoxide”; the Solubility in water result is “limited solubility in water”. In series [4], the EC50 was 0.05 µg/mL (≈ 0.0746 µM) and the “induction of G-CSF production (in words)” value is on record as “induced in a dose-dependent fashion”.

For `CCC1C=CC(=O)OC1/C=C/C(O)(CCN)C(CC(O)/C=C\C=C/C1CCCC(OC(=O)CCCCCC(C)C)C1)OP(=O)(O)O` (centres unmarked) [Leustroducsin C], in series [1], the EC50 came out at 0.05 µg/mL and the “induction of GM-CSF production (in words)” value is on record as “induced in a dose-dependent manner”. Further, the acute toxicity result in series [2] (setting [5]) is “no toxicity was observed”. For the same compound, in series [3], the Nature result was “Acidic and fat soluble”; the Solubility in hexane entry is “insoluble in hexane”; the “Solubility in organic solvents” value is “Soluble in alcohols, such as methanol, ethanol or butanol; and soluble in acetone, chloroform, ethyl acetate and dimethyl sulfoxide”; the Solubility in water result is listed as “limited solubility in water”. In addition, in series [4], the EC50 was found to be 0.05 µg/mL (≈ 0.0746 µM) and the “induction of G-CSF production (in words)” value was “induced in a dose-dependent fashion”.

Turning to “IL-1β: recombinant interleukin 1β (IL-1β: Genzyme Inc. USA)”, the “induction of GM-CSF production by IL-1β (in words)” value in series [1] (1 to 100 units/ml) is on record as “induced GM-CSF production in a dose-dependent manner”. Further, the “induction by IL-1β, printed as GM-CSF production in the G-CSF test (in words)” value in series [4] (1 to 100 units/ml) is listed as “induced GM-CSF production in a dose-dependent fashion”.
